According to patent US11690810B2, “Combination treatment of bacterial infection” (The Chinese University of Hong Kong, priority 2018, dated 2023):
Converted amounts (≈) assume the structure as drawn. Read-outs that look alike come from different tables or passages of the source.

Key:
[1] = tested on: cytokines production of human PBMC stimulated with PGN or SEB; type: cell-based
[2] = tested on: cytokines production of human macrophages stimulated with PGN or SEB; type: cell-based
[3] = tested on: Panton-Valentine leukocidin positive CA-MRSA strain ST30; type: in vivo, Balb/c mice; conditions: ST30
MRSA SA-ST239 = assay: MIC and checkerboard (FIC) assay; conditions: Staphylococcus aureus, MRSA
[4] = tested on: human peripheral blood mononuclear cells (PBMC); assay: XTT cytotoxicity testing; type: cell-based; conditions: 2-64 μg/ml, vs drug free control
Procedure: (§1) The plates were maintained in a 37° C. incubator.
The cytotoxicity of kuraridin and its analogues were determined by the sodium 3′-[1-(phenylaminocarbonyl)-3,4-tetrazolium]-bis (4-methoxy-6-nitro) benzene sulfonic acid hydrate (XTT) assay.
Serial dilutions of the compounds ranging 2-64 μg/ml were incubated with PBMCs at 37° C. for 72 hrs.

[5] = tested on: Human Umbilical Vein Endothelial Cells (HUVEC); assay: XTT cytotoxicity testing; conditions: 2-64 μg/ml, vs drug free control
[6] = tested on: internalization of MRSA strain JE-2 by HaCat keratinocytes; assay: Internalization of S. aureus by HaCaT keratinocytes; type: cell-based, Staphylococcus aureus
clinical MRSA ST239 = assay: Mouse pneumonia model, ST239 (neutropenic mice); type: in vivo, Balb/c mice; conditions: ST239; 48 h; 1 also died in control
[7] = tested on: S. aureus SA-APH2″-AAC6′ (APH2), resistant to gentamicin; assay: MIC and checkerboard (FIC) assay
[8] = tested on: S. aureus SA-APH3′ (APH3), resistant to kanamycin; assay: MIC and checkerboard (FIC) assay
[9] = tested on: panel of laboratory MRSA strains; assay: MIC and combination tests, panel of laboratory strains
physchem = conditions: aqueous with cosolvent or surfactant or cyclodextrin
panel of MRSA strains = conditions: previous study (12); cited from earlier work
[10] = tested on: S. aureus SA-ANT4′ (ANT4), resistant to fusidic acid; assay: MIC and checkerboard (FIC) assay
[11] = tested on: adherence of MRSA strain JE-2 to fibrinogen; assay: Fibrinogen-binding adherence assay (crystal violet); type: cell-based, Staphylococcus aureus; conditions: kuraridin at 1.0 μg/ml
[12] = tested on: S. aureus ATCC25923 (methicillin sensitive); assay: MIC and checkerboard (FIC) assay; conditions: Staphylococcus aureus
[13] = tested on: S. aureus SA-1199B (NorA efflux pump overexpressed); assay: MIC and checkerboard (FIC) assay
[14] = tested on: adherence of MRSA strain JE-2 to HaCat keratinocytes; assay: Bacterial adherence to HaCaT keratinocytes; type: cell-based, Staphylococcus aureus
[15] = tested on: Human Mammary Epithelial Cell (HMEC); assay: XTT cytotoxicity testing; type: cell-based; conditions: 2-64 μg/ml, vs drug free control
Procedure: as §1

[16] = tested on: S. aureus SA-RN4220-pUL5054 (RN4220); assay: MIC and checkerboard (FIC) assay
[17] = tested on: bacterial aggregation of MRSA JE-2; assay: Aggregation assay of MRSA JE-2; type: cell-based, Staphylococcus aureus; conditions: kuraridin at 4 μg/ml
[18] = tested on: clinical community-associated (CA) and hospital-associated (HA) MRSA strains; assay: MIC and combination tests, panel of clinical strains; conditions: range over clinical CA and HA MRSA strains (Table 3)
[19] = Staphylococcus aureus, read-out: MIC 99.9
[20] = Staphylococcus aureus, read-out: MIC alone

## C=C(C)C(CC=C(C)C)Cc1c(O)cc(OC)c(C(=O)/C=C/c2ccc(O)cc2O)c1O (stereo not shown) [Kuraridin]
[1]
  IL-10 and IL-12 production: dose-dependently inhibited
[2]
  IFN-γ productions: could suppress
  IL-6 and IL-12 production: dose-dependently inhibited
  TNF-α production: suppressed
[3]; kuraridin 120 mg/kg, ECG 120 mg/kg, 48 h, control 9.24±0.15
  log CFU counts (left lung): 8.25±0.39 log CFU
[3]; kuraridin 120 mg/kg, ECG 120 mg/kg, control 30%
  survival rates: 50%
[3]; used alone at 60 and 120 mg/kg
  log CFU counts and survival rates: could not reduce the log CFU counts or improve the survival rates
MRSA SA-ST239
  MIC90: 8 µg/mL
MRSA SA-ST239; read-out: MIC 99.9
  MIC99: 8 µg/mL
[4]
  Cellular toxicity (XTT assay): not toxic
[5]
  Cellular toxicity (XTT assay): not toxic
[6]; kuraridin 0.25 μg/ml
  percentage of internalized bacteria by HaCaT cells: 23.8±4.6%
[6]; kuraridin 0.5 μg/ml
  percentage of internalized bacteria by HaCaT cells: 15.8±2.0%
Clinical MRSA ST239
  mice died: 1 mouse
[7]; APH2, Kuraridin with ECG
  FIC: 0.25
  MIC combine: 2 µg/mL
[7]; Staphylococcus aureus
  MIC90: 8 µg/mL
[7]; [19]
  MIC99: 8 µg/mL
[7]; [20]
  MIC: 8 µg/mL
[8]; APH3, Kuraridin with ECG
  FIC: 0.25
  MIC combine: 2 µg/mL
[8]; Staphylococcus aureus
  MIC90: 8 µg/mL
[8]; [19]
  MIC99: 8 µg/mL
[8]; [20]
  MIC: 8 µg/mL
[9]; Staphylococcus aureus, MRSA
  MIC99: 8 to 16 µg/mL
[9]; range over laboratory strains (Table 2)
  MICs in kuraridin and ECG combined treatment: 2 to 4 µg/mL
physchem
  solubility: 20 mg/mL (≈ 45.6 mM)
Panel of MRSA strains
  minimum inhibitory concentration (MIC): around 8 μg/ml
[10]; ANT4, Kuraridin with ECG
  FIC: 0.25
  MIC combine: 2 µg/mL
[10]; Staphylococcus aureus
  MIC90: 4 µg/mL
[10]; [19]
  MIC99: 8 µg/mL
[10]; [20]
  MIC: 8 µg/mL
[11]
  reduction in the adherence of the WT strain to fibrinogen: 100%
[12]; ATCC25923
  MIC90: 8 µg/mL
[12]; ATCC25923, read-out: MIC 99.9
  MIC99: 8 µg/mL
[13]; 1199B, Kuraridin with ECG
  FIC: 0.25
  MIC combine: 4 µg/mL
[13]; Staphylococcus aureus
  MIC90: 16 µg/mL
[13]; [19]
  MIC99: 16 µg/mL
[13]; Staphylococcus aureus, read-out: MIC alone, 1199B, Kuraridin and ECG section
  MIC: 16 µg/mL
[14]; 2 μg/ml kuraridin (0.25×MIC)
  adherence of WT strain to HaCaT cells: abolished
[14]; kuraridin 0.25 μg/ml
  percentage of adherence of the bacteria: 28.4±3.2%
[14]; kuraridin 0.5 μg/ml
  percentage of adherence of the bacteria: 17.8±11.1%
[14]; kuraridin 1 μg/ml
  percentage of adherence of the bacteria: 7.6±3.7%
[15]
  Cellular toxicity (XTT assay): not toxic
[16]; RN4220, Kuraridin with ECG
  FIC: 0.25
  MIC combine: 2 µg/mL
[16]; Staphylococcus aureus
  MIC90: 8 µg/mL
[16]; Staphylococcus aureus, read-out: Activity (MIC, μg/ml)
  MIC: 8 µg/mL
[16]; [19]
  MIC99: 8 µg/mL
[16]; [20]
  MIC: 8 µg/mL
[17]
  aggregation lower than the mutant ΔSrtA: 3.7 folds
  reduction in bacterial aggregation as compared to the wild type without drug: 4.4 fold
[18]
  MICs in kuraridin and ECG combined treatment: 1 to 4 µg/mL
